These results are taken from ChEMBL document CHEMBL4312001, “Combined therapy with Benznidazole and repurposed drugs Clofazimine and Benidipine for chronic Chagas disease” (Eur J Med Chem, 2019).

Molecules are shown by their SMILES. Activity calls are given as the source filed them. The rule behind the calls is not given here.

The subject of series [1] is Trypanosoma cruzi. Put plainly: Antitrypanosomal activity against Trypanosoma cruzi K98 bloodstream form infected in C3H/HeNk mouse assessed as effect on heart rate duration at 30 mg/kg/day, po administered via gavage for 30 consecutive days starting from 90 days post infection and measured at 120 to 170 days post infection in presence of benznidazole by electrocardiographic analysis. Type of series: functional, organism-based.

The test system of series [2] is Trypanosoma cruzi. Put plainly: Antitrypanosomal activity against Trypanosoma cruzi K98 bloodstream form infected in C3H/HeNk mouse assessed as effect on heart rate at 30 mg/kg/day, po administered via gavage for 30 consecutive days starting from 90 days post infection and measured at 120 to 170 days post infection in presence of benznidazole by electrocardiographic analysis. Type of series: functional, organism-based.

The subject of series [3] is Trypanosoma cruzi. Put plainly: Antitrypanosomal activity against Trypanosoma cruzi K98 bloodstream form infected in C3H/HeNk mouse assessed as effect on QT interval at 30 mg/kg/day, po administered via gavage for 30 consecutive days starting from 90 days post infection and measured at 120 to 170 days post infection in presence of benznidazole by electrocardiographic analysis. Type of series: functional, organism-based.

Series [4] relates to Trypanosoma cruzi. Put plainly: Antitrypanosomal activity against Trypanosoma cruzi K98 bloodstream form infected in C3H/HeNk mouse assessed as effect on PR interval at 30 mg/kg/day, po administered via gavage for 30 consecutive days starting from 90 days post infection and measured at 120 to 170 days post infection in presence of benznidazole by electrocardiographic analysis. The series is classed as functional, organism-based.

The subject of series [5] is Trypanosoma cruzi. Description: Antitrypanosomal activity against Trypanosoma cruzi K98 bloodstream form infected in C3H/HeNk mouse assessed as effect on RR interval at 30 mg/kg/day, po administered via gavage for 30 consecutive days starting from 90 days post infection and measured at 120 to 170 days post infection in presence of benznidazole by electrocardiographic analysis. The series is classed as functional, organism-based.

Series [6] relates to Trypanosoma cruzi. Description: Antitrypanosomal activity against Trypanosoma cruzi K98 bloodstream form infected in C3H/HeNk mouse assessed as change in QRS morphology at 30 mg/kg/day, po administered via gavage for 30 consecutive days starting from 90 days post infection and measured at 170 days post infection in presence of benznidazole by electrocardiographic analysis (reference value: 25 %). Type of series: functional.

Series [7] concerns Trypanosoma cruzi. Description: Antitrypanosomal activity against Trypanosoma cruzi K98 bloodstream form infected in C3H/HeNk mouse assessed as change in QRS morphology at 30 mg/kg/day, po administered via gavage for 30 consecutive days starting from 90 days post infection and measured at 120 days post infection in presence of benznidazole by electrocardiographic analysis (reference value: 25 %). The series is classed as functional.

Series [8] concerns Trypanosoma cruzi. Description: Antitrypanosomal activity against Trypanosoma cruzi K98 bloodstream form infected in C3H/HeNk mouse assessed as reduction in parasite burden in cardiac muscle at 30 mg/kg/day, po administered via gavage for 30 consecutive days starting from 90 days post infection and measured at 180 days post infection in presence of benznidazole by qRT-PCR analysis. Type of series: functional, organism-based. In general terms: Quantitative PCR measures a nucleic acid by following its amplification.

The subject of series [9] is Trypanosoma cruzi. Description: Antitrypanosomal activity against Trypanosoma cruzi K98 bloodstream form infected in C3H/HeNk mouse assessed as reduction in parasite burden in skeletal muscle at 30 mg/kg/day, po administered via gavage for 30 consecutive days starting from 90 days post infection and measured at 180 days post infection in presence of benznidazole by qRT-PCR analysis. The series is classed as functional, organism-based.

Another series deals with Vero. Description: Cytotoxicity against African green monkey Vero cells at 0.5 to 20 uM after 72 hrs by propidium iodide staining based flow cytometric analysis. Type of series: cell-based. As to conditions: chlorocebus sabaeus.
Series [10] relates to Trypanosoma cruzi. Put plainly: Antitrypanosomal activity against Trypanosoma cruzi K98 bloodstream form infected in C3H/HeNk mouse assessed as reduction in parasite burden in blood at 30 mg/kg/day, po administered via gavage for 30 consecutive days starting from 90 days post infection and measured at 180 days post infection in presence of benznidazole by qRT-PCR analysis. The series is classed as functional, organism-based.

Series [11] deals with Trypanosoma cruzi. Description: Antitrypanosomal activity against Trypanosoma cruzi K98 bloodstream form infected in C3H/HeNk mouse assessed as reduction in cardiac tissue inflammation at 30 mg/kg/day, po administered via gavage for 30 consecutive days starting from 90 days post infection and measured at 180 days post infection in presence of benznidazole by hematoxylin and eosin staining based assay. The series is classed as functional, organism-based.

The subject of series [12] is Trypanosoma cruzi. Description: Antitrypanosomal activity against Trypanosoma cruzi K98 bloodstream form infected in C3H/HeNk mouse assessed as adipocytes replacement in skeletal muscle by measuring number of adipocyte at 30 mg/kg/day, po administered via gavage for 30 consecutive days starting from 90 days post infection and measured at 180 days post infection in presence of benznidazole by hematoxylin and eosin staining based …. The series is classed as functional.

A short description of series [13]: Toxicity in C3H/HeNk mouse infected with Trypanosoma cruzi K98 bloodstream form assessed as body weight gain at 30 mg/kg/day, po administered via gavage for 30 consecutive days starting from 90 days post infection measured up to 120 days post infection in presence of benznidazole. Type of series: organism-based. The note with it: in vivo.
In series [14] the test system is Trypanosoma cruzi. Put plainly: Antitrypanosomal activity against Trypanosoma cruzi K98 bloodstream form infected in C3H/HeNk mouse assessed as change in QRS morphology at 30 mg/kg/day, po administered via gavage for 30 consecutive days starting from 90 days post infection and measured at 120 days post infection by electrocardiographic analysis (reference value: 25 %). Type of series: functional.

In series [15] the test system is Trypanosoma cruzi. Description: Antitrypanosomal activity against Trypanosoma cruzi K98 bloodstream form infected in C3H/HeNk mouse assessed as reduction in cardiac tissue inflammation at 30 to 75 mg/kg/day, po administered via gavage for 30 consecutive days starting from 90 days post infection and measured at 180 days post infection by hematoxylin and eosin staining based assay. Type of series: functional, organism-based.

Series [16] can be described thus: Toxicity in C3H/HeNk mouse infected with Trypanosoma cruzi K98 bloodstream form assessed as decrease in body weight at 30 mg/kg/day, po administered via gavage for 30 consecutive days starting from 90 days post infection measured at 150 days post infection. Type of series: organism-based. The note with it: in vivo.
A short description of series [17]: Toxicity in C3H/HeNk mouse infected with Trypanosoma cruzi K98 bloodstream form assessed as decrease in body weight at 30 mg/kg/day, po administered via gavage for 30 consecutive days starting from 90 days post infection measured at 150 days post infection in presence of benznidazole. Type of series: organism-based. The note with it: in vivo.
Series [18] is described as follows: Toxicity in C3H/HeNk mouse infected with Trypanosoma cruzi K98 bloodstream form assessed as decrease in body weight at 15 mg/kg/day, po administered via gavage for 30 consecutive days starting from 90 days post infection measured at 150 days post infection in presence of benznidazole. The series is classed as organism-based. The note with it: in vivo.
The subject of series [19] is Trypanosoma cruzi. Put plainly: Antitrypanosomal activity against Trypanosoma cruzi K98 bloodstream form infected in C3H/HeNk mouse assessed as reduction in parasite burden in skeletal muscle at 30 to 75 mg/kg/day, po administered via gavage for 30 consecutive days starting from 90 days post infection and measured at 180 days post infection by qRT-PCR analysis. Type of series: functional, organism-based.

Series [20] relates to Trypanosoma cruzi. Description: Antitrypanosomal activity against Trypanosoma cruzi K98 bloodstream form infected in C3H/HeNk mouse assessed as reduction in parasite burden in cardiac muscle at 30 to 75 mg/kg/day, po administered via gavage for 30 consecutive days starting from 90 days post infection and measured at 180 days post infection by qRT-PCR analysis. Type of series: functional, organism-based.

Series [21] in a line: Toxicity in C3H/HeNk mouse infected with Trypanosoma cruzi K98 bloodstream form assessed as decrease in body weight at 75 mg/kg/day, po administered via gavage for 30 consecutive days starting from 90 days post infection measured at 150 days post infection. Type of series: organism-based. The note with it: in vivo.
Series [22] concerns Trypanosoma cruzi. Put plainly: Antitrypanosomal activity against Trypanosoma cruzi K98 bloodstream form infected in C3H/HeNk mouse assessed as change in QRS morphology at 75 mg/kg/day, po administered via gavage for 30 consecutive days starting from 90 days post infection and measured at 120 days post infection by electrocardiographic analysis (reference value: 25 %). The series is classed as functional.

In series [23] the test system is Trypanosoma cruzi. Put plainly: Antitrypanosomal activity against Trypanosoma cruzi K98 bloodstream form infected in C3H/HeNk mouse assessed as change in QRS morphology at 30 mg/kg/day, po administered via gavage for 30 consecutive days starting from 90 days post infection and measured at 170 days post infection by electrocardiographic analysis (reference value: 25 %). The series is classed as functional.

Series [24] deals with Trypanosoma cruzi. Description: Antitrypanosomal activity against Trypanosoma cruzi K98 bloodstream form infected in C3H/HeNk mouse assessed as QRS morphology at 75 mg/kg/day, po administered via gavage for 30 consecutive days starting from 90 days post infection and measured at 170 days post infection by electrocardiographic analysis (reference value: 25 %). Type of series: functional.

For series [25], the system named is Trypanosoma cruzi. Put plainly: Antitrypanosomal activity against Trypanosoma cruzi K98 bloodstream form infected in C3H/HeNk mouse assessed as effect on RR interval at 30 to 75 mg/kg/day, po administered via gavage for 30 consecutive days starting from 90 days post infection and measured at 120 to 170 days post infection by electrocardiographic analysis. The series is classed as functional, organism-based.

Series [26] deals with Trypanosoma cruzi. Description: Antitrypanosomal activity against Trypanosoma cruzi K98 bloodstream form infected in C3H/HeNk mouse assessed as effect on PR interval at 30 to 75 mg/kg/day, po administered via gavage for 30 consecutive days starting from 90 days post infection and measured at 120 to 170 days post infection by electrocardiographic analysis. The series is classed as functional, organism-based.

The test system of series [27] is Trypanosoma cruzi. Put plainly: Antitrypanosomal activity against Trypanosoma cruzi K98 bloodstream form infected in C3H/HeNk mouse assessed as effect on QT interval at 30 to 75 mg/kg/day, po administered via gavage for 30 consecutive days starting from 90 days post infection and measured at 120 to 170 days post infection by electrocardiographic analysis. The series is classed as functional, organism-based.

In series [28] the test system is Trypanosoma cruzi. Put plainly: Antitrypanosomal activity against Trypanosoma cruzi K98 bloodstream form infected in C3H/HeNk mouse assessed as effect on heart rate at 30 to 75 mg/kg/day, po administered via gavage for 30 consecutive days starting from 90 days post infection and measured at 120 to 170 days post infection by electrocardiographic analysis. Type of series: functional, organism-based.

Series [29] deals with Trypanosoma cruzi. Description: Antitrypanosomal activity against Trypanosoma cruzi K98 bloodstream form infected in C3H/HeNk mouse assessed as effect on heart rate duration at 30 to 75 mg/kg/day, po administered via gavage for 30 consecutive days starting from 90 days post infection and measured at 120 to 170 days post infection by electrocardiographic analysis. The series is classed as functional, organism-based.

Series [30] has as its system Trypanosoma cruzi. Description: Antitrypanosomal activity against Trypanosoma cruzi K98 bloodstream form infected in C3H/HeNk mouse assessed as reduction in parasite burden in blood at 30 to 75 mg/kg/day, po administered via gavage for 30 consecutive days starting from 90 days post infection and measured at 180 days post infection by qRT-PCR analysis. Type of series: functional, organism-based.

Series [31] deals with Trypanosoma cruzi. Put plainly: Antitrypanosomal activity against Trypanosoma cruzi K98 bloodstream form infected in C3H/HeNk mouse assessed as reduction in skeletal tissue inflammation at 75 mg/kg/day, po administered via gavage for 30 consecutive days starting from 90 days post infection and measured at 180 days post infection by hematoxylin and eosin staining based assay. Type of series: functional, organism-based.

A short description of series [32]: Toxicity in C3H/HeNk mouse infected with Trypanosoma cruzi K98 bloodstream form assessed as body weight gain at 75 mg/kg/day, po administered via gavage for 30 consecutive days starting from 90 days post infection measured up to 120 days post infection. The series is classed as organism-based. The note with it: in vivo.
Series [33] in a line: Toxicity in C3H/HeNk mouse infected with Trypanosoma cruzi K98 bloodstream form assessed as body weight gain at 30 mg/kg/day, po administered via gavage for 30 consecutive days starting from 90 days post infection measured up to 120 days post infection. Type of series: organism-based. The note with it: in vivo.

As for `CC(C)/N=c1\cc2n(-c3ccc(Cl)cc3)c3ccccc3nc-2cc1Nc1ccc(Cl)cc1` [CLOFAZIMINE], the result in the series with Trypanosoma cruzi [1], in the series with Trypanosoma cruzi [2], in the series on Trypanosoma cruzi [3], in the series on Trypanosoma cruzi [4], in the series on Trypanosoma cruzi [5] and in the series with Trypanosoma cruzi [8] was inactive. Also, in the series on Trypanosoma cruzi [11], the result was inactive. Besides, the Activity in the series with Trypanosoma cruzi [6] was 0%; in the series on Trypanosoma cruzi [7], 0%; in the series on Vero, “Non-Toxic”; in the series with Trypanosoma cruzi [12], 1 - 3; in [13], “Non-Toxic”. Further, the result in the series on Trypanosoma cruzi [9] and in the series with Trypanosoma cruzi [10] was Active.

As to `O=C(Cn1ccnc1[N+](=O)[O-])NCc1ccccc1` [BENZNIDAZOLE], the Activity was 0% in the series on Trypanosoma cruzi [14]; “Non-Toxic” in [16]; “Non-Toxic” in series [17]; “Non-Toxic” in series [18]; “Toxic” in series [21]; 0% in the series on Trypanosoma cruzi [22]. Further, the Activity is 0% in the series with Trypanosoma cruzi [23]; 80% with Trypanosoma cruzi [24]; “Non-Toxic” with Vero; “Non-Toxic” in [32]; “Non-Toxic” in [33]. The outcome in the series on Trypanosoma cruzi [15], with Trypanosoma cruzi [19], in the series with Trypanosoma cruzi [20] and in the series on Trypanosoma cruzi [30] was Active. Further, the outcome with Trypanosoma cruzi [25], in the series with Trypanosoma cruzi [26], with Trypanosoma cruzi [27], with Trypanosoma cruzi [28], in the series on Trypanosoma cruzi [29] and in the series on Trypanosoma cruzi [31] was inactive.
